Consider 3 molecules from ChEMBL document CHEMBL1201862, “PubChem BioAssay data set” (2004).

SMILES strings stand for the structures.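 Step 1: Grow cells in 96-well plates. Step 2: Expose to compound for 48 hours at 5 concentrations. Step 3: Interpolate endpoints linearly; if unreached, use highest concentration. GI50: concentration for 50% inhibition of growth.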 Active and inactive are the calls of the source. Cut-off read from the data, not from the text of the source: active = GI50 up to about 1.1 µM and inactive = higher.

Some test systems named below: A498; CAKI-1; CCRF-CEM; COLO 205; HCC 2998; HCT-15; HL-60; HOP-62; Hs-578T; IGROV-1; K562; MDA-MB-435; NCI-H23; NCI-H460; NCI-H522; OVCAR-3; SF-539; U-251; UACC-257; UO-31.
Holding throughout (assay): NCI-60 cell line screen, 48 h

With `Cc1nc(N)nc(N)c1-c1ccc(Cl)c(Cl)c1` [METOPRINE], the GI50 in the test with A498 was 21.6 µM (inactive); with CAKI-1 it was 5.18 µM (inactive); in the test with CCRF-CEM, 0.432 µM (active); in the test on COLO 205, 10.4 µM (inactive); in the test with HCC 2998 it was 2.91 µM (inactive); with HCT-15, 0.145 µM. Further, the GI50 in the test on HL-60 is 0.13 µM (active); in the test with HOP-62, 1.12 µM (inactive); in the test on Hs-578T, 4.72 µM (inactive); with IGROV-1 it was 2.54 µM (inactive); with K562 it was 0.0219 µM (active); with MDA-MB-435, 0.356 µM (active). Besides, the GI50 was 0.378 µM (active) with NCI-H23; 0.0239 µM (active) in the test on NCI-H460; 0.785 µM (active) in the test with NCI-H522; 3.75 µM (inactive) in the test with OVCAR-3; 1.21 µM (inactive) in the test on SF-539; 0.635 µM (active) with U-251. Besides, the GI50 in the test with UACC-257 was 3.85 µM (inactive); in the test on UO-31, 1.15 µM (inactive).
In the case of `CC(=O)C(=Cc1ccc(C=C(C(C)=O)C(C)=O)cc1)C(C)=O`, the GI50 in the test with A498 is 2.58 µM (inactive); with CAKI-1, 1.74 µM (inactive); in the test with CCRF-CEM, 0.193 µM (active); with COLO 205, 1.7 µM (inactive); in the test on HCC 2998 it was 4.81 µM (inactive); in the test on HCT-15 it was 0.977 µM. In addition, the GI50 in the test with HL-60 was 0.31 µM (active); in the test on HOP-62, 2.08 µM (inactive); in the test on Hs-578T it was 3.58 µM (inactive); with IGROV-1, 2.02 µM (inactive); in the test with K562, 0.286 µM (active); in the test on MDA-MB-435 it was 1.63 µM (inactive). Moreover, the GI50 with NCI-H23 was 1.93 µM (inactive); with NCI-H460, 2.59 µM (inactive); in the test on NCI-H522, 1.37 µM (inactive); in the test on OVCAR-3, 2.01 µM (inactive); in the test with SF-539, 2.1 µM (inactive); in the test with U-251, 1.79 µM (inactive). Besides, the GI50 with UACC-257 was 1.92 µM (inactive); with UO-31, 1.6 µM (inactive).
As for `Cc1csc2c(P(=O)(OC(C)C)OC(C)C)c(-c3ccccc3)cn12`, the GI50 with A498 was 18.7 µM (inactive); in the test with CAKI-1, 18.2 µM (inactive); in the test with CCRF-CEM, 16.7 µM (inactive); with COLO 205 it was 18.7 µM (inactive); in the test on HCC 2998, 14.6 µM (inactive); with HCT-15, 15.9 µM. Moreover, the GI50 in the test with HL-60 was 19 µM (inactive); in the test on HOP-62, 18.2 µM (inactive); in the test on Hs-578T, 17.1 µM (inactive); in the test on IGROV-1, 15.4 µM (inactive); with K562, 17.6 µM (inactive); in the test with MDA-MB-435, 21.5 µM (inactive). The GI50 is 19.1 µM (inactive) in the test on NCI-H23; 16.5 µM (inactive) in the test with NCI-H460; 15.3 µM (inactive) in the test on NCI-H522; 14.4 µM (inactive) with OVCAR-3; 18.3 µM (inactive) in the test with SF-539; 16 µM (inactive) in the test on U-251. The GI50 is 14 µM (inactive) in the test with UACC-257 and 15.3 µM (inactive) in the test with UO-31.
